Data from patent US12187709B2 (Genentech, Inc., priority 2021, dated 2025).

Columns and labels:
[1] = target: Human Cbl-b (residues 40-426) (Homo sapiens (Human), UniProt Q13191); experiment: Cbl-b SPR assay; type: binding; details: for Fold of selectivity: C-cbl SPR Kd vs Cbl-b SPR Kd; for Kd: SPR, 20° C.
Method in brief: (§1)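 Where a chaser compound was used, % compound bound was calculated as (1−(RUT/RUT0))*100 relative to a prior chaser injection and fitted to a single exponential for kd. The single cycle titration (max 500 nM) was then fitted with kd held fixed.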

c-Cbl (residues 47-435) = c-Cbl (residues 47-435) (Homo sapiens (Human), UniProt P22681); experiment: c-Cbl SPR assay; type: binding; details: 20° C.
Method in brief: as §1

c-Cbl = c-Cbl (Homo sapiens (Human), UniProt P22681); experiment: C-Cbl LCK Ub TR-FRET assay (C-cbl Lck HTRF); type: biochemical
Method in brief: (§2)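 Signal is read once the detection mix has stood 20 min at ambient temperature. Curves are anchored by DMSO as maximum and by omission of LCK as minimum.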

Cbl-b = Cbl-b (Homo sapiens (Human), UniProt Q13191); experiment: Cbl-b LCK Ub TR-FRET assay (Cbl-b Lck HTRF); type: biochemical; details: for IC50: Cbl-b LCK Ub TR-FRET; for fold-selectivity (Cbl-b over C-cbl) / (fold-selectivity) Cbl-b and C-Cbl Selectivity: ratio C-cbl Lck HTRF IC50 / Cbl-b Lck HTRF IC50
Method in brief: as §2

c-Cbl, sequence (P22681 47-435): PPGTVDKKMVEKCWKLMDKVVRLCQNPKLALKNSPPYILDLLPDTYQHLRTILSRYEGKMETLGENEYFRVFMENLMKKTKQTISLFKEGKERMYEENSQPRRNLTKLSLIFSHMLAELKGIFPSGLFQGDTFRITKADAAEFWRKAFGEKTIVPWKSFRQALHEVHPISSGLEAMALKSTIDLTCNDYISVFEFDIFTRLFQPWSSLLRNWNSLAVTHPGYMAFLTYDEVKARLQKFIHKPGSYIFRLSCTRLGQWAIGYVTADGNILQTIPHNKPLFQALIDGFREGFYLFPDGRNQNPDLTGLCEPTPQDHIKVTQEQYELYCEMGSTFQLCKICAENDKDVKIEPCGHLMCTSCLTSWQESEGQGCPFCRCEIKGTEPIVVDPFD
c-Cbl (residues 47-435), sequence (P22681 47-435): as above
Human Cbl-b (residues 40-426), sequence (Q13191 40-426): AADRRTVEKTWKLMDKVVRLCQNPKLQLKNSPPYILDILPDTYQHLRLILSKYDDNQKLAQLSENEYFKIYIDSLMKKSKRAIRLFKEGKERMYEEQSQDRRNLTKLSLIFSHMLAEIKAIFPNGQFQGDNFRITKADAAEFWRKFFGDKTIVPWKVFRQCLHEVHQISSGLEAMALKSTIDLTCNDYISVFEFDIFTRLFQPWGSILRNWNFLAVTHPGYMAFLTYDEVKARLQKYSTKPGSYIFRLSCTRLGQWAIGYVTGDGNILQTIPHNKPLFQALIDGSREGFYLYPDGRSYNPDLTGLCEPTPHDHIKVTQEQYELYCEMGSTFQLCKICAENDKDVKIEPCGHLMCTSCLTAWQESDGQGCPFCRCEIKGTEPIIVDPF
Cbl-b, sequence (Q13191 40-426): as above

Row | Compound | Fold of selectivity [1] [×] | Kd [1] [nM] | Kd (c-Cbl (residues 47-435)) [nM] | IC50 (c-Cbl) [nM] | IC50 (Cbl-b) [nM] | fold-selectivity (Cbl-b over C-cbl) (Cbl-b) | IC50 (Cbl-b; Example 121) [nM] | (fold-selectivity) Cbl-b and C-Cbl Selectivity (Cbl-b) [x]
1 | Cn1cnnc1[C@@H](c1cccc(N2Cc3c(cc(CNC4(C)CCC4)cc3C(F)(F)F)C2=O)c1)[C@H]1C[C@H](OC(F)(F)F)C1 (single isomer, unassigned) [Compound 395] | 7.1 | 130 | 920 | 160 | 75 | 2.1x |  | 
2 | CC(=O)N(C)[C@H](c1cccc(N2Cc3c(cc(CNC4(C)CCC4)cc3C(F)(F)F)C2=O)c1)c1nncn1C (single isomer, unassigned) [Compound 399] | 17 | 490 | 8100 | 6000 | 530 | 12x |  | 
3 | CC(=O)N1CC([C@@H](c2cccc(N3Cc4c(cc(CNC5(C)CCC5)cc4C(F)(F)F)C3=O)c2)c2nncn2C)C1 (single isomer, unassigned) [Compound 402] | 3.4 | 890 | 2800 | 2500 | 580 | 4.3x |  | 
4 | C[C@H](NC1(C)CCC1)c1cc2c(c(C(F)F)c1)CN(c1cccc([C@@H](c3nncn3C)C3COC3)c1)C2=O (single isomer, unassigned) [Compound 407] | 16 | 270 | 4300 | 5700 |  |  | 390 | 14
5 | Cn1cnnc1[C@@H](c1cc(Cl)cc(N2Cc3c(cc(CNC4(C)CCC4)cc3C(F)(F)F)C2=O)c1)C1COC1 (single isomer, unassigned) [Compound 408] | 1.8 | 440 | 770 | 780 |  |  | 540 | 1.4
6 | Cn1cnnc1[C@H](c1cc(Cl)cc(N2Cc3c(cc(CNC4(C)CCC4)cc3C(F)(F)F)C2=O)c1)C1COC1 (single isomer, unassigned) [Compound 409] | 1.4 | 62 | 90 | 57 |  |  | 52 | 1.1
7 | Cn1cnnc1[C@H](c1cccc(N2Cc3c(cc([C@H](NC4(C)CCC4)C4CCC4)cc3C(F)(F)F)C2=O)c1)C1COC1 (single isomer, unassigned) [Compound 434] | 13 | 190 | 2500 | 510 |  |  | 160 | 3.1
8 | CC1(NCc2cc3c(c(C(F)(F)F)c2)CN(c2cccc([C@@H](C4COC4)n4ccnn4)c2)C3=O)CCC1 (single isomer, unassigned) [Compound 436] | 5.3 | 600 | 3500 | 2400 |  |  |  | 4.2
9 | C[C@H](NC1(C)CCC1)c1cc2c(c(C(F)(F)F)c1)CN(c1cccc([C@@H](c3nncn3C)C3COC3)c1)C2=O (single isomer, unassigned) [Compound 442] | 18 | 180 | 3300 | 2800 |  |  | 260 | 11
10 | Cn1cnnc1[C@H](c1cccc(N2Cc3c(cc([C@H](NC4(C)CCC4)C4CC4)cc3C(F)(F)F)C2=O)c1)C1COC1 (single isomer, unassigned) [Compound 456] | 18 | 230 | 4100 | 2400 |  |  | 360 | 6.5
11 | CO[C@H]1C[C@](c2cccc(N3Cc4c(cc(CN[C@@H]5C[C@H]5C(C)(F)F)cc4C(F)(F)F)C3=O)c2)(c2nncn2C)C1 (single isomer, unassigned) [Compound 506] | 8.1 | 55 | 450 | 180 |  |  | 22 | 8.0
12 | CO[C@H]1C[C@@H]([C@@H](c2cccc(N3Cc4c(cc(CN5CCN(C)C[C@@H]5C(C)C)cc4C(F)(F)F)C3=O)c2)c2nncn2C)C1 (stereo in doubt) [Compound 13, 6-(((S)-2-isopropyl-4-methylpiperazin-1-yl)methyl)-2-(3-((S)-((1 S,3S)-3-methoxycyclobutyl)(4-methyl-4H-1,2,4-triazol-3-yl)methyl)phenyl)-4-(trifluoromethyl)isoindolin-1-one] | 4.1 | 120 | 490 | 540 | 200 | (2.7x) |  | 

Now those with a lower Kd [1], led by results:

Row | Fold of selectivity [1] [×] | Kd [1] [nM] | Kd (c-Cbl (residues 47-435)) [nM] | IC50 (c-Cbl) [nM] | IC50 (Cbl-b) [nM] | fold-selectivity (Cbl-b over C-cbl) (Cbl-b) | IC50 (Cbl-b; Example 121) [nM] | (fold-selectivity) Cbl-b and C-Cbl Selectivity (Cbl-b) [x] | Compound
13 | 4.8 | 42 | 170 | 200 |  |  | 37 | 5.1 | Cn1cnnc1[C@@H](c1cccc(N2Cc3c(cc(CNC4(C)CCC4)cc3C(F)(F)F)C2=O)c1)C1(O)CCC1 (single isomer, unassigned) [Compound 429]
14 | 10 | 8.5 | 86 | 78 |  |  | 17 | 4.7 | Cn1cnnc1[C@@H](c1cccc(N2Cc3c(cc([C@@H](NC4(C)CCC4)C4CCC4)cc3C(F)(F)F)C2=O)c1)C1COC1 (single isomer, unassigned) [Compound 433]
15 | 14 | 5.9 | 74 | 91 |  |  | 19 | 4.7 | Cn1cnnc1[C@@H](c1cccc(N2Cc3c(cc([C@@H](NC4(C)CCC4)C4CC4)cc3C(F)(F)F)C2=O)c1)C1COC1 (single isomer, unassigned) [Compound 430]
16 | 10 | 5.7 | 57 | 43 |  |  | 14 | 3.1 | Cn1cnnc1[C@@H](c1cccc(N2Cc3c(cc(CNC4(C)CCC4)cc3C(F)F)C2=O)c1)C1CC(F)C1 (single isomer, unassigned) [Compound 458]
17 | 16 | 5.2 | 82 | 59 |  |  | 14 | 4.2 | C[C@@H](NC1(C)CCC1)c1cc2c(c(C(F)F)c1)CN(c1cccc([C@H](c3nncn3C)C3COC3)c1)C2=O (single isomer, unassigned) [Compound 412]
18 | 3.6 | 2.5 | 9.1 | 8.6 |  |  | 6.2 | 1.4 | Cn1cnnc1[C@@H](c1cccc(N2Cc3c(cc(CNC4(C)CC4)cc3C(F)(F)F)C2=O)c1)C1COC1 (single isomer, unassigned) [Compound 466]
19 | 4.5 | 2 | 9 | 6.5 | 5.8 | 1.1x |  |  | Cn1cnnc1[C@@H](c1cccc(N2Cc3c(cc(CNC4(C)CCC4)cc3C(F)(F)F)C2=O)c1)C1CC(OC(F)(F)F)C1 (single isomer, unassigned) [Compound 398]
20 | 7 | 1.6 | 12 | 7.5 |  |  | 5.2 | 1.4 | Cn1cnnc1[C@@H](c1cccc(N2Cc3c(cc(CNCC(C)(C)C)cc3C(F)(F)F)C2=O)c1)C1COC1 (single isomer, unassigned) [Compound 468]
21 | 3.3 | 1.1 | 3.6 | 7.1 |  |  | 6.5 | 1.1 | CC(C)CNCc1cc2c(c(C(F)(F)F)c1)CN(c1cccc([C@H](c3nncn3C)C3COC3)c1)C2=O (single isomer, unassigned) [Compound 464]
22 | 6.1 | 0.5 | 3.2 | 6.3 |  |  | 5.9 | 1.1 | Cn1cnnc1[C@@H](c1cccc(N2Cc3c(cc(CNC4(C)CCC4)cc3C(F)F)C2=O)c1)C1CC(F)C1 (single isomer, unassigned) [Compound 459]
23 | 3.1 | 0.4 | 1.3 | 5.8 |  |  | 5.3 | 1.1 | Cn1cnnc1[C@@H](c1cccc(N2Cc3c(cc([C@H](NC4(C)CCC4)C4CC4)cc3C(F)(F)F)C2=O)c1)C1COC1 (single isomer, unassigned) [Compound 431]
24 | 3.6 | 0.4 | 1.5 | 7.1 |  |  | 5.5 | 1.3 | Cn1cnnc1[C@@H](c1cccc(N2Cc3c(cc([C@H](NC4(C)CCC4)C4CCC4)cc3C(F)(F)F)C2=O)c1)C1COC1 (single isomer, unassigned) [Compound 432]
25 | 5.3 | 0.3 | 1.6 | 7.1 |  |  | 4.5 | 1.6 | C[C@H](NC1(C)CCC1)c1cc2c(c(C(F)F)c1)CN(c1cccc([C@H](c3nncn3C)C3COC3)c1)C2=O (single isomer, unassigned) [Compound 413]
